Test results published in PMC9460506, “Polyphenol-Rich Date Palm Fruit Seed (Phoenix Dactylifera L.) Extract Inhibits Labile Iron, Enzyme, and Cancer Cell Activities, and DNA and Protein Damage” (Nutrients, 2022).
Values after ≈ are worked out from the molar mass of the structure shown.

Tests used:
Ferritin = test: Labile iron inhibition test (iron release from ferritin by superoxide); format: biochemical
Method: The tested mixture was irradiated with a fluorescent lamp at room temperature for 90 min. Labile iron was measured, as noted previously.

[1] = Ferric-reducing/antioxidant power (FRAP) test; details: tested 0.1 to 5 mg/mL
Method: The FRAP reagent proportions consisted of 1:1:10 (v/v/v) of TPTZ 10 mM solution in 40 mM HCl, FeCl3 20 mM, and acetate buffer pH 3.6, 0.3 M. Then, 1 mL of the tested sample was mixed with 2 mL of freshly prepared FRAP reagent. The mixtures were incubated for 30 min at 37 °C. The absorbance was conducted using a Varian CARY 50 Scan UV–VIS Spectrophotometer with a Cary 50 Microplate Reader Accessory (Varian, Inc., Walnut Creek, CA, USA), at 593 nm. Deionized water was used as a blank. FeSO4 was used for the calibration curve. The values of FRAP were expressed as µmol of Fe (II).

[2] = Total antioxidant activity (TAC, phosphomolybdate); details: tested 0.1-5 mg/mL
Method: In brief, 0.3 mL of a reagent composed of sodium phosphate 28 mM, sulphuric acid 0.6 M, and ammonium molybdate 4 mM were added to 0.1 mL tested samples and incubated at 95 °C for 90 min. After cooling, the mixture was measured at 695 nm using a Varian CARY 50 Scan UV–VIS Spectrophotometer with a Cary 50 Microplate Reader Accessory (Varian, Inc., Walnut Creek, CA, USA). A higher antioxidant capacity is correlated with a higher absorbance value.

[3] = DPPH free radical-scavenging test; details: tested 0.1 to 5 mg/mL
Method: They were determined to be effective against 1,1-diphenyl-2, picrylhydrazyl radicals. The results of the study were compared with those of a previously reported method. […] The absorbance was conducted using a Varian CARY 50 Scan UV–VIS Spectrophotometer with a Cary 50 Microplate Reader Accessory (Varian, Inc., Walnut Creek, CA, USA).

[4] = test system: Bovine Serum Albumin (BSA)
Method: Bovine Serum Albumin (BSA) was oxidized by AAPH using a method outlined earlier [18]. […] The control sample was without AAPH.
Then the mixture was loaded and separated using SDS-PAGE 10% after reduction conditions for 5 min, at 100 °C. The free stained gels’ images were taken with a ChemiDoc MV gel documentation system (Bio-Rad, Hercules, CA, USA). The band intensity determined the protein damage amount for each band using Image Lab 4.1 Software version 6.1.0 (Bio-Rad, Hercules, CA, USA).

[5] = Nitric oxide radical (NO) scavenging test (Griess reaction)
Method: In brief, 3 mL of the reaction mixture (2 mL of 10 mM sodium nitroprusside, 0.5 mL phosphate buffer saline, and 0.5 of tested samples). The mixture was incubated for 150 min at 25 °C. Then 0.5 mL of the mixture was mixed with 1 mL of (sulfanilic acid reagent: 0.33% in 20% glacial acetic acid). After 5 min, 1 mL of naphthyl ethylene diamine dihydrochloride 0.1% was added. After 30 min at room temperature, the absorbance was conducted using a Varian CARY 50 Scan UV–VIS Spectrophotometer with a Cary 50 Microplate Reader Accessory (Varian, Inc., Walnut Creek, CA, USA) at 540 nm. The nitrite percentage was determined by considering Equation 1 described above.

Which results are given for C[C@@H]1O[C@@H](OC[C@H]2O[C@@H](Oc3c(-c4ccc(O)c(O)c4)oc4cc(O)cc(O)c4c3=O)[C@H](O)[C@@H](O)[C@@H]2O)[C@H](O)[C@H](O)[C@H]1O [Rutin]?
percent inhibition of iron release from ferritin (Ferritin; at 10 μg): 85.32 ± 0.56%; percent inhibition of iron release from ferritin (Ferritin; at 50 μg): 90.30 ± 0.01%; percent inhibition of iron release from ferritin (Ferritin; at 100 μg): 96.65 ± 0.01%; Free Radical Inhibition Activity IC50, FRAP [1]: 533 ± 22.85 µg/mL

What does the source list for O=C1O[C@H]([C@@H](O)CO)C(O)=C1O [VC, vitamin C]?
IC50, Total antioxidant Capacity [2]: 3005.29 ± 427.80 µg/mL (≈ 17.1 mM); Free Radical Inhibition Activity IC50, DPPH [3]: 880 ± 12.89 µg/mL; IC50 [4]: < 100 µg/mL; scavenging capacity for NO ([5]; 0.5 mg/mL): 40.92%; scavenging capacity for NO ([5]; 1 mg/mL): 29.57%; scavenging capacity for NO ([5]; 3 mg/mL): 55.12%; scavenging capacity for NO ([5]; 5 mg/mL): 56.55%; scavenging capacity for NO ([5]; starting value (lowest concentration)): 59.10%; IC50, Nitric oxide ([5]; tested 0.1 to 5 mg/mL): 2710 ± 65.98 µg/mL (≈ 15.4 mM)

For Cc1c(C)c2c(c(C)c1O)CCC(C)(C(=O)O)O2 (centres unmarked) [Trolox], which “percent inhibition of iron release from ferritin” value (“percent inhibition” below) (Ferritin; at 10 μg) is on record?
Its value is 39.33 ± 0.54%.

And the “percent inhibition” value (Ferritin; at 50 μg)?
Its value is 84.79 ± 3.00%.

What about the “percent inhibition” value (Ferritin; at 100 μg) of the same compound?
The value was 87.87 ± 1.87%.

For O=C(O)c1cc(O)c(O)c(O)c1 [Gallic acid, gallic acid], which “percent inhibition” value (Ferritin; at 10 μg) is on record?
Its value is 50.68 ± 0.18%.

And the “percent inhibition” value (Ferritin; at 50 μg)?
Its value is 59.22 ± 0.81%.

And the “percent inhibition” value (Ferritin; at 100 μg)?
Its value is 68.55 ± 0.38%.

What about the “IC50, Labile Iron” value (Ferritin; iron release from ferritin by superoxide) of the same compound?
Its value is 4.86 ± 0.23 µg/mL (≈ 0.0286 mM).
